ChEMBL document CHEMBL5046276 (J Med Chem, 2022)
pIC50: −log10 of the molar value. Activity calls are given as the source filed them. The rule behind the calls is not given here.

Legend:
Plasmodium falciparum [1] = assay: Inhibition of Plasmodium falcipuram recombinant HDAC1 using HDAC-Glo I/II as substrate at 50 to 800 nM preincubated for 90 mins by luminescence based microplate reader analysis; conditions: dose 50-800 nM
[2] = Toxicity in BALB/c mouse infected with liver stage transgenic Plasmodium berghei ANKA sporozoites transfected with GFP-Luc assessed as animal death at 30 mg/kg, iv measured on day 4 post-administration; format: organism-based; conditions: in vivo, 96 h, time 4 day
Plasmodium falciparum [3] = assay: Antimalarial activity against synchronized Plasmodium falcipuram 3D7 infected in human RBC assessed as irreversible inhibition of parasite growth at schizont stage at 40 nM treated 29 to 41 hpi incubated for 12 hrs followed by compound washout and replacement with fresh medium without compounds and measured after 4 days by flow cytometry; format: functional, organism-based
Histone deacetylase 1 = Histone deacetylase 1 (Homo sapiens, UniProt Q13547); assay: Inhibition of recombinant human full length C-terminal His/FLAG tagged HDAC1 (1 to 482 residues) expressed in baculovirus-infected Sf9 cells using Ac-peptide as substrate incubated for 4 hrs
Sequence of Histone deacetylase 1 (Q13547 whole entry, the tested form may be a part): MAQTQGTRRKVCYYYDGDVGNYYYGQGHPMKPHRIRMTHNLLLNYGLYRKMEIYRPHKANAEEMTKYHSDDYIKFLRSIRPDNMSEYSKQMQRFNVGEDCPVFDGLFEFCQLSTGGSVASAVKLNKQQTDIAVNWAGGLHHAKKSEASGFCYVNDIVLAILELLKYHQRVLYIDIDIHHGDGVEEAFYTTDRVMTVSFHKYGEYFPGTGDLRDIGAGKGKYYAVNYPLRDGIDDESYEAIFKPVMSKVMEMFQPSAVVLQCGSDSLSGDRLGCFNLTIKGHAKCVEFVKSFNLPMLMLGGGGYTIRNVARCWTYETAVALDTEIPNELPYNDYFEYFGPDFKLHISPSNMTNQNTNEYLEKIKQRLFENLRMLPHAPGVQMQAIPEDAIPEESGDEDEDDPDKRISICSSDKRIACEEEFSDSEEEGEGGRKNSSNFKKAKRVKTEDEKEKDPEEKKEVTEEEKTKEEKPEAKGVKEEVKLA

[4] = molecular target: T1, Protein deacetylase HDAC6 (Homo sapiens) (UniProt Q9UBN7); assay: Potency index, ratio of test compound IC50 to Quisinostat IC50 for inhibition of recombinant human full length N-terminal GST tagged HDAC6 (1 to 1215 residues) expressed in baculovirus-infected Sf9 cells using Ac-peptide as substrate incubated for 4 hrs
T1 sequence (whole entry): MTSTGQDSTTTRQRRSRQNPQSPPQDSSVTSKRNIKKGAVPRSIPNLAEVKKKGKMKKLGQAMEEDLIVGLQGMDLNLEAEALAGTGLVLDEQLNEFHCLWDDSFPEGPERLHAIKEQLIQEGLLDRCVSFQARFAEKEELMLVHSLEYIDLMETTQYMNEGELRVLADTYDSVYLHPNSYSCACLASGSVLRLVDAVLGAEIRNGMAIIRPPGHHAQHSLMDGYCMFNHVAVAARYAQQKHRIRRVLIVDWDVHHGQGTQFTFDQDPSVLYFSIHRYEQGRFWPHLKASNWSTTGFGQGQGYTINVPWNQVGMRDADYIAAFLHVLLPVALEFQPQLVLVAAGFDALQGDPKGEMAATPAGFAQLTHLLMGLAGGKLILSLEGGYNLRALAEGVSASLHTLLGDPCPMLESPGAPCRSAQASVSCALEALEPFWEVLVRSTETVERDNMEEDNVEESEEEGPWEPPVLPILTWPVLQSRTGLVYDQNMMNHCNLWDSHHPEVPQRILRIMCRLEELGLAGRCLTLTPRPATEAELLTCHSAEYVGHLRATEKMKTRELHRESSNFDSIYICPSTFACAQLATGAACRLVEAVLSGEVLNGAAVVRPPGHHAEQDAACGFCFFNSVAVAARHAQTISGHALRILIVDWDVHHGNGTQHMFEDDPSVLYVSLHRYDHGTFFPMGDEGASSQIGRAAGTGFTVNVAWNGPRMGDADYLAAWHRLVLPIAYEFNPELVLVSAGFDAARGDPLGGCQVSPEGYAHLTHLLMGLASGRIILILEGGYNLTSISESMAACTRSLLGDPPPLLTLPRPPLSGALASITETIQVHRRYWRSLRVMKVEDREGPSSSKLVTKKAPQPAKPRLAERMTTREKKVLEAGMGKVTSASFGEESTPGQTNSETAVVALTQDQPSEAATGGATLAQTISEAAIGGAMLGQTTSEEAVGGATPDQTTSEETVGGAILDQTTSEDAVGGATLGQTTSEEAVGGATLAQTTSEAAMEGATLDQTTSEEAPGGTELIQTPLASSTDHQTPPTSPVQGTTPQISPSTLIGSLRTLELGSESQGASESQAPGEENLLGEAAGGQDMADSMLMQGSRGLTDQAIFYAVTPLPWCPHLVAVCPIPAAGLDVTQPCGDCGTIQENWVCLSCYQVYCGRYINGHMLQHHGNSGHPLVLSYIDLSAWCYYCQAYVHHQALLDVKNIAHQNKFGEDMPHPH

[5] = molecular target: T2, NAD-dependent protein deacetylase sirtuin-2 (Homo sapiens, UniProt Q8IXJ6); assay: Inhibition of human C-terminal His-tagged SIRT2 (50 to 356 residues) expressed in Escherichia coli using Ac-peptide as substrate incubated for 4 hrs followed by trypsin addition and further incubated for 2 hrs
T2 sequence (Q8IXJ6 whole entry): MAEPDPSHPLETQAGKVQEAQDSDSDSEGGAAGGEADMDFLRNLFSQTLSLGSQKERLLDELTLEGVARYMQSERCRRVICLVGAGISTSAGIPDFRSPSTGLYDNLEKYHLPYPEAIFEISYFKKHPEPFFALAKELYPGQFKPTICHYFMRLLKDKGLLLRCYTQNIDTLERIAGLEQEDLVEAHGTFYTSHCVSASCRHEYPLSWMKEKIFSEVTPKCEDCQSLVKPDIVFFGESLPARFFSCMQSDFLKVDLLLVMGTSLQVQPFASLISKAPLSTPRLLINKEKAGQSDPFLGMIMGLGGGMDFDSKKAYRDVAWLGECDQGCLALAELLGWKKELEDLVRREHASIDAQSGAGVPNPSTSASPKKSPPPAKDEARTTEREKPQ

[6] = Drug concentration in BALB/c mouse plasma at 5 mg/kg, ip measured upto 24 hrs by LC-MS/MS analysis; format: ADME, organism-based
Histone deacetylase 8 = molecular target: T3, Histone deacetylase 8 (Homo sapiens, UniProt Q9BY41); assay: Inhibition of recombinant human full length C-terminal His-tagged HDAC8 expressed in baculovirus-infected Sf9 insect cells using Ac-peptide as substrate incubated for 4 hrs followed by trypsin addition and further incubated for 2 hrs
T3 sequence (Q9BY41 whole entry): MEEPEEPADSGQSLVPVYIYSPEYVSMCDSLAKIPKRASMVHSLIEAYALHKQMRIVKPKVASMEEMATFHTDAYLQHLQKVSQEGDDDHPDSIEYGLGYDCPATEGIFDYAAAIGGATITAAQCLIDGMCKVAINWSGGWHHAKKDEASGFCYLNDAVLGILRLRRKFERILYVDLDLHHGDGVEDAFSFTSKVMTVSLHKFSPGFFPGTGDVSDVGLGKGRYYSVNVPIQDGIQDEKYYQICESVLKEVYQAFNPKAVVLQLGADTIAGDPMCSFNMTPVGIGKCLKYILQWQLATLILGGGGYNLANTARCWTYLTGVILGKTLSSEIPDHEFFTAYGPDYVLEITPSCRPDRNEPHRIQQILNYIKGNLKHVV

Plasmodium berghei = assay: Antimalarial activity against liver stage transgenic Plasmodium berghei ANKA sporozoites transfected with GFP-Luc infected in BALB/c mouse assessed as delayed progression of infection at 30 mg/kg, iv measured for 1 to 4 days post-administration by IVIS spectrum in vivo imaging analysis; format: functional, organism-based; conditions: time 1-4 day
[7] = Cmax in BALB/c mouse at 5 mg/kg, ip measured upto 24 hrs by LC-MS/MS analysis; format: ADME, organism-based; design: route intraperitoneal, dose 5 mg/kg, time <=24; conditions: in vivo
[8] = molecular target: T4, Protein deacetylase HDAC6 (Homo sapiens, UniProt Q9UBN7); assay: Inhibition of recombinant human full length N-terminal GST tagged HDAC6 (1 to 1215 residues) expressed in baculovirus-infected Sf9 cells using Ac-peptide as substrate incubated for 4 hrs
T4 sequence (Q9UBN7 whole entry): T1 sequence (whole entry)

In the case of `Cl.Cn1cc(CN2CC3(CCN(c4ncc(C(=O)NO)cn4)C3)C2)c2ccc(C#N)cc21`, the inhibition (Plasmodium falciparum [1]) was “Active”, the Activity [2] was “Non-Toxic” and the Activity (Plasmodium falciparum [3]) was “Active”. The pIC50 (Histone deacetylase 1) was 8.66, the Ratio IC50 [4] was 3 and the pIC50 [5] was under 5.00. The concentration at 24 h [6] was 89 ng/mL, the pIC50 (Histone deacetylase 8) was 7.52 and the Activity (Plasmodium berghei) was “Active”. The Cmax [7] was 539 ng/mL and the pIC50 [8] was 7.07.
